Experimental data: BindingDB's records for patent US12338253 (Applied Pharmaceutical Science, 2025)

Molecular target: Proto-oncogene tyrosine-protein kinase receptor Ret [V804M] (Human, UniProt P07949, V804M)
Assay: Kinase Activity Assay

Proto-oncogene tyrosine-protein kinase receptor Ret [V804M], sequence (P07949 29-1114 V804M limits assumed): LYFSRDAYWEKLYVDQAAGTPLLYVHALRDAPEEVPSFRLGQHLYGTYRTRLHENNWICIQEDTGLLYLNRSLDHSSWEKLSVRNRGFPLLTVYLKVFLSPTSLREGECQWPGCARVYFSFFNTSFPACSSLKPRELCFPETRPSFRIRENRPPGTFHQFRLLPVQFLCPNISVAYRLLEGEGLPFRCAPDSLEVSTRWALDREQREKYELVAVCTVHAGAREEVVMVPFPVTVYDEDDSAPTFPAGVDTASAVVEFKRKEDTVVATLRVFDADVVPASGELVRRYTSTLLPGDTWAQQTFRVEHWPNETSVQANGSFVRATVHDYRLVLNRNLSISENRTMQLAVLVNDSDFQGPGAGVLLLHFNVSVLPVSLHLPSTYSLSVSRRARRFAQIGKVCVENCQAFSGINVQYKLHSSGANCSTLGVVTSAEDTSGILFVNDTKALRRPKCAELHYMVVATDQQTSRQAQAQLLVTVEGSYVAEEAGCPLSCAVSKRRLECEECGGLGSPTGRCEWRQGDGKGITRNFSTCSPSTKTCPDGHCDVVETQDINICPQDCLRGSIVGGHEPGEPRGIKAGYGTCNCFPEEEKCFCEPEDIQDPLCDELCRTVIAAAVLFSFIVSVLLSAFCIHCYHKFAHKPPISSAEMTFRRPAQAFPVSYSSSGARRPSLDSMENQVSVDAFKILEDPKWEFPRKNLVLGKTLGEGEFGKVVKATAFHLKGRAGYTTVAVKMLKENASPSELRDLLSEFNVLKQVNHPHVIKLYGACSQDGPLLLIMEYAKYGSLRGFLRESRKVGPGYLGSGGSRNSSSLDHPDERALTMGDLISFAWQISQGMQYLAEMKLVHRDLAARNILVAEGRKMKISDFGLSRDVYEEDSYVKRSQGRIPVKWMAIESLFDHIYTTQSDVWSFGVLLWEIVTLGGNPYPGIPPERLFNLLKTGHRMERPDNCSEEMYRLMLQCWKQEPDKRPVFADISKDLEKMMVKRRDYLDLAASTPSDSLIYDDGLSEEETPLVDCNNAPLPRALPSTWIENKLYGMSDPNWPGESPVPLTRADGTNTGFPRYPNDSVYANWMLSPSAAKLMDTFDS

Molecule `COc1ccc(CN2C3CC2CN(c2ccc(-c4cc(OC[C@@H]5CNCCO5)cn5nc6[nH]ncc6c45)cn2)C3)cn1` [US12338253, Compound 17] has an IC50 of 0.1 nM.
